From patent publication US20180256668A1, “PHARMACEUTICAL COMPOSITION FOR TREATMENT OF OR REMISSION IN ELDERLY OR TERMINAL CANCER PATIENT” (DELTA-FLY PHARMA, INC., priority 2014, published 2018) come the findings set out here.

Test [1] deals with post-surgery multiple lung metastases of thyroid gland cancer. Kind of test: Case of a patient with post-surgery multiple lung metastases of thyroid gland cancer (Example 2). The class given is in vivo, human. The protocol: Multiple lung metastases were confirmed in a thyroid gland cancer patient and the platelet count and the neutrophil count in peripheral blood both increased. In December 2013 (Dec-13), the […] to neutrophil count ratio (NLR) in peripheral blood was more than 5, indicating poor prognosis.
Starting in March 2014 (Mar-14), Bestatin (10 mg/day) was administered alone every day.

The test system of test [2] is post-surgery recurrence of non-small cell lung cancer. Kind of test: Case of a patient with post-surgery recurrence of non-small cell lung cancer (Example 3). Particulars: Bestatin 10 mg/day alone every day from Jan-14. The class given is in vivo, human. How it is done: The non-small cell lung cancer patient received lung right upper lobectomy, then immunotherapy, but enlargement of the right cervical lymph node was confirmed (September 2012 (Sep-12)). Subsequently, the elevation of CEA levels in peripheral blood was confirmed.
Starting in January 2014 (Jan-14), Bestatin (10 mg/day) was administered alone every day.

Test [3] deals with A549 human lung carcinoma. Kind of test: Antitumor effect of Bestatin and gefitinib in A549 cancer-bearing mice (Example 15). The class given is in vivo, BALB/c nu/nu mice. Particulars: po, qd, 6 days/week x 3 weeks. How it is done: • [1] Production of Cancer-Bearing Mouse
A549 human lung carcinoma suspension (5×10^6 cells/100 μL PBS) was subcutaneously inoculated to BALB/c nu/nu mice (female). After cells were transplanted, mice with a tumor volume reaching about 117 mm^3 (on day 15 after the cell transplantation) were used for the following in vivo experiments, • [2] Evaluation of Antitumor Effects Attained by Combination of Bestatin and Gefitinib
Bestatin and gefitinib were respectively administered by the following doses, administration route and schedule to the above A549 cancer-bearing mice.
The antitumor effect was examined based on changes in tumor volume and changes in body weight.
The tumor volume was calculated by the following formula.
Tumor volume (mm^3)=(long side of tumor)×(short side of tumor)^2×0.5
Tumor growth inhibition (TGI) was also calculated from the tumor volume by the following formula.

For test [4], the system named is post-surgery liver metastasis of colorectal cancer. Kind of test: Case of a terminal colorectal cancer patient with post-surgery liver metastasis (Example 1). It counts as in vivo, human. The protocol:
Post-surgery liver metastasis was confirmed in the terminal colorectal cancer patient.
Starting in March 2014 (Mar-14), Bestatin […]) was administered alone every day.

Where [5] appears, read: Bestatin 10 mg/day alone every day from Mar-14.
[6] abbreviates: Bestatin 10 mg/day alone every day, May-14, two months after start.

As for `CC(C)C[C@H](NC(=O)[C@@H](O)[C@H](N)Cc1ccccc1)C(=O)O` [Bestatin, (2S)-2-[(2S,3R)-3-amino-2-hydroxy-4-phenylbutanoylamino]-4-methylpentanoic acid], the “Lymphocyte in peripheral blood” value in test [1] (2014 Jul. 15 (After administration), Bestatin 10 mg/day alone, before administration 8%) was found to be 22%. For the same molecule, the “Neutrophil in peripheral blood” value in test [1] (2014 Jul. 15 (After administration), Bestatin 10 mg/day alone, before administration 83%) came out at 55%. In addition, in test [1] (2014 Jul. 15 (After administration), Bestatin 10 mg/day alone, before administration (2014 Jan. 10) 9500), the “Leukocyte in peripheral blood” value came out at 4900. Also, in test [1] (setting [5]), the “neutrophil count in peripheral blood” value is reported as “drops” and the “platelet count in peripheral blood” value is “drops”. Further, the “CEA level in peripheral blood” value in test [2] was “drop”. Moreover, the “TGI (%) On day 40” value in test [3] (G3: Bestatin 30 mg/kg alone) stood at 39%. Also, the “platelet count in peripheral blood” value in test [4] (setting [5]) is “started decreasing”. In test [4] (setting [6]), the “tumor marker CA19-9 level in peripheral blood” value is on record as “started decreasing” and the “tumor marker CEA level in peripheral blood” value is given as “started decreasing”. In test [4] (administration stopped Jul-14), the “CEA level after Bestatin administration was stopped” value is “quickly elevated again” and the “platelet count in peripheral blood after Bestatin administration was stopped” value is recorded as “quickly elevated again”.

With `COc1cc2ncnc(Nc3ccc(F)c(Cl)c3)c2cc1OCCCN1CCOCC1` [gefitinib], in test [3] (G2: gefitinib 10 mg/kg alone), the “TGI (%) On day 40” value is 31%.
